16 molecules from patent publication US8865623B2, “Herbicidally active cyclic diones and derivatives thereof, processes for their preparation, compositions, and method of controlling weeds” (Syngenta Limited, priority 2009, dated 2014) can be followed below.

Common to all, as to type: in vivo
Test [1] deals with Lolium perenne (LOLPE). Kind of test: Pre-emergence herbicidal activity, glasshouse pot test. Particulars: evaluated after 13 days; for pest or weed control at 250 g/ha: Lolium perenne, 312 h, Rate 250 g/ha, pre-emergence spray, read-out: Pre-emergence activity LOLPE (100=total damage to plant; 0=no damage to plant). The method, then:
(§1) Seeds of a variety of test species were sown in standard soil in pots. After cultivation for one day (pre-emergence) or after 8 days cultivation (post-emergence) under controlled conditions in a glasshouse (at 24/16° C., day/night; 14 hours light; 65% humidity), the plants were sprayed with an aqueous spray solution derived from the formulation of the technical active ingredient in acetone/water (50:50) solution containing 0.5% Tween 20 (polyoxyethelyene sorbitan monolaurate, CAS RN 9005-64-5). The test plants were then grown in a glasshouse under controlled conditions in a glasshouse (at 24/16° C., day/night; 14 hours light; 65% humidity) and watered twice daily. After 13 days for pre and post-emergence, the test was evaluated (100=total damage to plant; 0=no damage to plant).
(§2) Lolium perenne (LOLPE), Alopecurus myosuroides (ALOMY), Echinochloa crus-galli (ECHCG), and Avena fatua (AVEFA).

Test [2] deals with Echinochloa crus-galli (ECHCG). The description is as above. As to conditions: evaluated after 13 days; for pest or weed control at 250 g/ha: Echinochloa crus-galli, 312 h, Rate 250 g/ha, pre-emergence spray, read-out: Pre-emergence activity ECHCG (100=total damage to plant; 0=no damage to plant). The procedure: as §1, §2
In test [3] the test system is Avena fatua (AVEFA). Described as above. As to conditions: evaluated after 13 days; for pest or weed control at 250 g/ha: Avena fatua, 312 h, Rate 250 g/ha, pre-emergence spray, read-out: Pre-emergence activity AVEFA (100=total damage to plant; 0=no damage to plant). The procedure:
as §1, §2

For test [4], the system named is Alopecurus myosuroides (ALOMY). Described as above. As to conditions: evaluated after 13 days; for pest or weed control at 250 g/ha: Alopecurus myosuroides, 312 h, Rate 250 g/ha, pre-emergence spray, read-out: Pre-emergence activity ALOMY (100=total damage to plant; 0=no damage to plant). The procedure:
as §1, §2

Test [5] concerns Lolium perenne (LOLPE). Kind of test: Post-emergence herbicidal activity, glasshouse pot test. As to conditions: rate 250 g/ha, evaluated after 13 days; for pest or weed control at 250 g/ha: Lolium perenne, 312 h, glasshouse, read-out: Post-emergence activity LOLPE (100=total damage to plant; 0=no damage to plant). The method, then: as §1, §2
Test [6] deals with Echinochloa crus-galli (ECHCG). The test is described as above. Particulars: rate 250 g/ha, evaluated after 13 days; for pest or weed control at 250 g/ha: Echinochloa crus-galli, 312 h, glasshouse, read-out: Post-emergence activity ECHCG (100=total damage to plant; 0=no damage to plant). The procedure: as §1, §2
The subject of test [7] is Avena fatua (AVEFA). The description is as above. As to conditions: rate 250 g/ha, evaluated after 13 days; for pest or weed control at 250 g/ha: Avena fatua, 312 h, glasshouse, read-out: Post-emergence activity AVEFA (100=total damage to plant; 0=no damage to plant). The procedure:
as §1, §2

The test system of test [8] is Alopecurus myosuroides (ALOMY). The description is as above. As to conditions: rate 250 g/ha, evaluated after 13 days; for pest or weed control at 250 g/ha: Alopecurus myosuroides, 312 h, glasshouse, read-out: Post-emergence activity ALOMY (100=total damage to plant; 0=no damage to plant). The method, then: as §1, §2

`CCc1ccc(Oc2ncc(C(F)(F)F)cc2F)cc1C1=C(O)CC2(CCOCC2)CC1=O` [Example A-273]: the pest or weed control at 250 g/ha (in the test on Lolium perenne (LOLPE) [1]; in test [2]; in the test on Avena fatua (AVEFA) [3]; in test [4]; in the test on Lolium perenne (LOLPE) [5]; in test [6]) was 100% throughout. Besides, the pest or weed control at 250 g/ha (in the test with Avena fatua (AVEFA) [7]; in test [8]) was 100% in each case.

In the case of `CCc1ccc(Oc2ccc(Cl)cn2)cc1C1=C(O)C(C)(C)OC(C)(C)C1=O` [Example A-147], the pest or weed control at 250 g/ha with Lolium perenne (LOLPE) [1] was found to be 80%; in test [2], 100%; in the test with Avena fatua (AVEFA) [3], 20%; in test [4], 50%; with Lolium perenne (LOLPE) [5], 90%; in test [6], 100%. The results for the pest or weed control at 250 g/ha (in the test on Avena fatua (AVEFA) [7]; in test [8]) were 70% and 80%, respectively.

In the case of `CCc1ccc(Oc2ccc(Cl)cc2F)cc1C1=C(O)CCCC1=O` [Example A-38], the pest or weed control at 250 g/ha in the test with Lolium perenne (LOLPE) [1] is 70%; in test [2], 70%; with Avena fatua (AVEFA) [3], 10%; in test [4], 50%; with Lolium perenne (LOLPE) [5], 30%; in test [6], 80%. Besides, the values for the pest or weed control at 250 g/ha (with Avena fatua (AVEFA) [7]; in test [8]) were 30% and 20%, respectively.

As to `CCc1ccc(Oc2ccc(Cl)cc2Cl)cc1C1=C(O)C(C)(C)OC(C)(C)C1=O` [Example A-19], the pest or weed control at 250 g/ha was 80% in the test on Lolium perenne (LOLPE) [1]; 100% in test [2]; 70% with Avena fatua (AVEFA) [3]; 50% in test [4]; 90% with Lolium perenne (LOLPE) [5]; 100% in test [6]. Moreover, the pest or weed control at 250 g/ha (with Avena fatua (AVEFA) [7]; in test [8]) was 60% throughout.

With `CCc1ccc(Oc2ccc(F)cc2)cc1C1=C(O)CCCC1=O` [Example A-29], the pest or weed control at 250 g/ha in the test with Lolium perenne (LOLPE) [1] was found to be 30%; in test [2], 40%; in the test with Avena fatua (AVEFA) [3], 10%; in test [4], 0%; in the test on Lolium perenne (LOLPE) [5] it was 10%; in test [6], 70%. The pest or weed control at 250 g/ha (in the test with Avena fatua (AVEFA) [7]; in test [8]) was 0% in each case.

`CCc1ccc(Oc2ccc([N+](=O)[O-])cc2F)cc1C1=C(O)C(C)(C)OC(C)(C)C1=O` [Example A-20]: the pest or weed control at 250 g/ha in the test on Lolium perenne (LOLPE) [1] came to 0%; in test [2], 100%; with Avena fatua (AVEFA) [3], 20%; in test [4], 40%; in the test with Lolium perenne (LOLPE) [5], 50%; in test [6], 80%. The pest or weed control at 250 g/ha with Avena fatua (AVEFA) [7] came out at 70%; in test [8], 0%.

As to `CCc1ccc(Oc2cc(Cl)nc(C)n2)cc1C1=C(O)C(C)(C)OC(C)(C)C1=O` [Example A-130], the pest or weed control at 250 g/ha is 0% in the test on Lolium perenne (LOLPE) [1]; 30% in test [2]; 0% in the test with Avena fatua (AVEFA) [3]; 0% in test [4]; 10% with Lolium perenne (LOLPE) [5]; 40% in test [6]. Also, the values for the pest or weed control at 250 g/ha (in the test on Avena fatua (AVEFA) [7]; in test [8]) were 0% and 10%, respectively.

Regarding `CCc1ccc(Oc2ccc3ccccc3n2)cc1C1=C(O)CC(C)(C)CC1=O` [Example A-292], the pest or weed control at 250 g/ha stood at 100% with Lolium perenne (LOLPE) [1]; 100% in test [2]; 50% in the test with Avena fatua (AVEFA) [3]; 90% in test [4]; 90% with Lolium perenne (LOLPE) [5]; 100% in test [6]. Also, the pest or weed control at 250 g/ha in the test on Avena fatua (AVEFA) [7] is 90%; in test [8] it was 100%.

In the case of `CCOC(=O)OC1=C(c2cc(Oc3ccc(C#N)cc3F)ccc2CC)C(=O)C(C)(C)OC1(C)C` [Example P-5], the “LOLPE damage to plant (100=total damage to plant; 0=no damage to plant)” value came to 100 with Lolium perenne (LOLPE) [1] (pre-emergence, rate 250 g/ha) and 80 in the test with Lolium perenne (LOLPE) [5]. The “ECHCG damage to plant (100=total damage to plant; 0=no damage to plant)” value in test [2] (pre-emergence, rate 250 g/ha) stood at 100; in test [6] it was 100. The “AVEFA damage to plant (100=total damage to plant; 0=no damage to plant)” value in the test with Avena fatua (AVEFA) [3] (pre-emergence, rate 250 g/ha) is listed as 70; with Avena fatua (AVEFA) [7], 70. Moreover, the “ALOMY damage to plant (100=total damage to plant; 0=no damage to plant)” value in test [4] (pre-emergence, rate 250 g/ha) was 100; in test [8], 80.

On to `CCc1ccc(Oc2nc3cc(Cl)ccc3s2)cc1C1=C(O)[C@@H]2CC[C@](C)(C1=O)C2(C)C` [Example A-322], for which the pest or weed control at 250 g/ha worked out at 100% in the test with Lolium perenne (LOLPE) [1]; 100% in test [2]; 40% with Avena fatua (AVEFA) [3]; 60% in test [4]; 90% with Lolium perenne (LOLPE) [5]; 100% in test [6]. The pest or weed control at 250 g/ha in the test with Avena fatua (AVEFA) [7] was determined as 80%; in test [8] it was 90%.

As for `CCc1ccc(Oc2nc3ccc([N+](=O)[O-])cc3s2)cc1C1=C(O)CC(C)(C)CC1=O` [Example A-299], the pest or weed control at 250 g/ha in the test on Lolium perenne (LOLPE) [1] was 100%; in test [2], 100%; with Avena fatua (AVEFA) [3], 20%; in test [4], 50%; with Lolium perenne (LOLPE) [5], 80%; in test [6] it was 100%. In addition, the pest or weed control at 250 g/ha (in the test with Avena fatua (AVEFA) [7]; in test [8]) was 90% throughout.

For `CCc1ccc(Oc2ccc([N+](=O)[O-])cc2C#N)cc1C1=C(O)C(C)(C)OC(C)(C)C1=O` [Example A-202], the pest or weed control at 250 g/ha in the test on Lolium perenne (LOLPE) [1] was 10%; in test [2], 60%; in the test with Avena fatua (AVEFA) [3], 0%; in test [4], 0%; in the test with Lolium perenne (LOLPE) [5] it was 30%; in test [6] it was 60%. Further, the pest or weed control at 250 g/ha with Avena fatua (AVEFA) [7] stood at 20%; in test [8], 10%.

`CCc1ccc(Oc2ncc(Cl)cn2)cc1C1=C(O)CC(C)(C)CC1=O` [Example A-288]: the pest or weed control at 250 g/ha in the test with Lolium perenne (LOLPE) [1] was found to be 100%; in test [2], 100%; with Avena fatua (AVEFA) [3] it was 60%; in test [4] it was 90%; in the test on Lolium perenne (LOLPE) [5] it was 90%; in test [6], 100%. Moreover, the pest or weed control at 250 g/ha in the test on Avena fatua (AVEFA) [7] worked out at 90%; in test [8], 100%.

Consider `CCc1ccc(Oc2ccc(C(F)(F)F)cn2)cc1C1=C(O)CC(C)(C)CC1=O` [Example A-83], for which the pest or weed control at 250 g/ha with Lolium perenne (LOLPE) [1] turned out to be 90%; in test [2] it was 100%; in the test with Avena fatua (AVEFA) [3], 90%; in test [4] it was 70%; in the test on Lolium perenne (LOLPE) [5], 60%; in test [6] it was 100%. Besides, the pest or weed control at 250 g/ha came out at 100% in the test on Avena fatua (AVEFA) [7] and 90% in test [8].

Regarding `CCc1ccc(Oc2ccc(C(F)(F)F)cc2Cl)cc1C1=C(O)CC(C)(C)CC1=O` [Example A-281], the pest or weed control at 250 g/ha in the test with Lolium perenne (LOLPE) [1] worked out at 80%; in test [2] it was 100%; in the test on Avena fatua (AVEFA) [3], 0%; in test [4] it was 70%; in the test on Lolium perenne (LOLPE) [5] it was 60%; in test [6], 100%. In addition, the pest or weed control at 250 g/ha was found to be 80% with Avena fatua (AVEFA) [7] and 90% in test [8].

On to `CCc1ccc(Oc2cc(C)c(Cl)nn2)cc1C1=C(O)C(C)(C)OC(C)(C)C1=O` [Example A-121], for which the pest or weed control at 250 g/ha in the test with Lolium perenne (LOLPE) [1] is 0%; in test [2] it was 10%; with Avena fatua (AVEFA) [3] it was 0%; in test [4], 10%; in the test on Lolium perenne (LOLPE) [5], 20%; in test [6], 50%. The pest or weed control at 250 g/ha with Avena fatua (AVEFA) [7] was determined as 0%; in test [8], 10%.
